According to patent publication US4661491A, “Alfuzosine compositions and use” (Synthelabo, priority 1985, dated 1987):

What was measured:
α-adrenergic receptors = molecular target: T1, α-adrenergic receptors (Oryctolagus cuniculus, UniProt O02824); test: Phenylephrine-induced contraction of rabbit trigone muscle and urethra preparations; assay type: biochemical
T1 construct: The bladder and urethra are rapidly removed and placed in lukewarm Krebs solution; from tissue; host or cells: rabbit bladder trigone muscle and urethra ring, isolated organ
T1 sequence (O02824 1-466): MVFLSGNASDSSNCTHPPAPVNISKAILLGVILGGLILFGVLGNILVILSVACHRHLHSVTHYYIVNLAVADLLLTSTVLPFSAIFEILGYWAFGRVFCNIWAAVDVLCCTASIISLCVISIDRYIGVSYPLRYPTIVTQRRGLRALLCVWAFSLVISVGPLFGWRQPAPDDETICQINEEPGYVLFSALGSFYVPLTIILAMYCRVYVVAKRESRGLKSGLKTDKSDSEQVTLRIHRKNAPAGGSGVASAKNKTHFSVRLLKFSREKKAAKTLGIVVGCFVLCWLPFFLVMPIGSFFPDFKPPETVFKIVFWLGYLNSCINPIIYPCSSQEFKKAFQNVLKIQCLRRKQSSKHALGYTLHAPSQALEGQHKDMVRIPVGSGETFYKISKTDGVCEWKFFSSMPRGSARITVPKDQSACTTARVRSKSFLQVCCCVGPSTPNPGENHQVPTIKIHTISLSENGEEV
Method: Male rabbits (CEGAN) weighing 3 to 4 kg are sacrificed by exsanguination and cervical dislocation.
The bladder and urethra are rapidly removed and placed in lukewarm Krebs solution containing bicarbonate.
The composition of this Krebs medium is as follows, in mM: NaCl 114; KCl 4.7; CaCl2 2.5; KH2 PO4 1.2; MgSO4 1.2; NaHCO3 25.0; glucose 11.7; ascorbic acid 1.1. Propranolol (1.0 μM) is added into the Krebs medium to block the β-adrenergic receptors.
The bladder is opened transversely and the "trigone" region of the muscle, located on the dorsal surface of the bladder and between the two ureters, is dissected out.
A 5 mm ring of urethra, from the region situated between the base of the bladder and the prostate, is also prepared.
The portions of trigone muscle and urethra are washed under a tension of 1 g in Krebs medium.
The contraction-response curve to cumulated concentrations of phenylephrine is determined.
Additions of the agonist are performed every 5 min. The tissues are washed until the original tension is reestablished, and are then incubated for 30 min with alfuzosine. A second response curve to phenylephrine is determined in the presence of alfuzosine.
The response curves to concentrations of phenylephrine in the presence or absence of alfuzosine are expressed as a percentage of the maximum response obtained relative to the control curve.
The power of alfuzosine is calculated in the form of pA2 by Schild's method, where pA2 =negative logarithm of the molar concentration of alfuzosine which causes a rightward shift of the response curve to the agonist.

[1] = Clinical study in paraplegics, micturition test; assay type: in vivo, human
Method: A clinical study was also performed in paraplegics.
The paraplegic, or spinal man, gives rise to an experimental model of the peripheral receptors, since he embodies a disconnection from the influence of the higher, diencephalic and cortical nerve centres.
Given the localization of the alpha-adrenergic receptors in the posterior urethra and the vesico-urethral segment or neck, alpha-adrenergic hypertonia is the source of dysuria and disturbances of micturition. The opening of the neck and the fall in the pressure gradient in the posterior urethra are the two conditions required for the production of effective micturition.
Alfuzosine was administered intravenously, and then orally if the first test is positive. 5 mg of alfuzosine are injected intravenously in the course of 20 min.
The test is considered to be positive if an initiation of micturition, that is to say, necessarily, opening of the neck, takes place.
For patients for whom the test is positive, the administration of alfuzosine was then performed orally at the rate of 9 mg/24 h/28 d.

[2] = Clinical study, sphincterometric measurements in patients with dysuria of neurological origin with urethral hypertonia; assay type: in vivo, human; conditions: 5 mg i.v. over 20 min; p<0.001
Method: By means of clinical studies, it has also been possible to show the efficacy of alfuzosine in patients suffering from dysuria of neurological origin with urethral hypertonia.
5 mg of alfuzosine are injected intravenously continuously for a period of 20 min. Sphincterometric measurements were made using an electronic micro-sensor, before and after the injection of the drug, at the bladder neck and at the striated sphincter of the posterior urethra.

shift of the response curve to phenylephrine (α-adrenergic receptors; alfuzosine 3.0 μM, 30 min incubation, trigone muscle and urethra): significant rightward parallel shift
Kb (α-adrenergic receptors; antagonism of phenylephrine contraction, read-out: pA2 (Schild analysis) (converted)): 89.1 nM
reduction in the maximum contractile effects of phenylephrine (α-adrenergic receptors; trigone muscle and urethra, 30 min): 20 to 30%
SMILES: COc1cc2nc(N(C)CCCNC(=O)C3CCCO3)nc(N)c2cc1OC (stereo not shown) [Alfuzosine]
initiation of micturition under oral treatment ([1]; paraplegics positive in i.v. test, per os 9 mg/24 h/28 d): enabled micturition to be rendered easier to initiate
intra-urethral pressures after injection ([1]; paraplegics, 5 mg i.v. in 20 min): decrease significantly
pressure decrease at the bladder neck [2]: 44%
pressure decrease at the striated sphincter [2]: 39%
